Source: patent US7462227B2 (E.I. du Pont de Nemours and Company, priority 2005, dated 2008)
“Also recorded” adds a separate entry of the source.

Columns and labels:
termites = conditions: Connick et al 2001; cited from earlier work

Protocol for Solubility: In general, solubility of the complex is determined by visual observation, and a complex is considered to be solbilized when a sufficient amount of the complex is dissolved in the solution to permit a desired amount of the complex to be adsorbed on and/or absorbed in the cellulosic material when the treatment thereof occurs.

SMILES	toxicity to termites (termites)	solubility in methanol and ethanol (Solubility)	solubility in water (Solubility)
CC(C)Cc1ccc(C(C)C(=O)O)cc1 (centres unmarked) [ibuprofen]	toxic	soluble	relatively insoluble; also recorded: only slightly soluble
CC(C)Cc1ccc(C(C)C(=O)[O-])cc1.[Na+] (centres unmarked) [sodium ibuprofenate]	–	soluble	relatively insoluble
